The results in this text go back to patent publication US10814010B2, “FOXC2 inhibitor and methods of use thereof” (The Board of Regents of The University of Texas System, priority 2018, dated 2020).

Each structure is given as a SMILES string.

One test relates to MCF-7 cells. Briefly: MTT cell viability assay, MCF-7. In kind it is cell-based. Conditions: MCF-7, MTT, very low FOXC2 expression. The protocol:
It was hypothesized that the specific binding of MC-1-F2 can lead to its specific cellular activity against cancer cells with high FOXC2 expression. This hypothesis was tested by evaluating MC-1-F2's cellular activity on cell lines with different FOXC2 expression levels: MCF-7, BT549, and MDA-MB-231. […] However, further studies are still underway. The specificity in cellular activity of MC-1-F2 was further evaluated in the form of a soft-agar colony forming assay to determine if MC-1-F2 was able to inhibit in vitro tumorigenicity of cancer cells in a FOXC2 expression-dependent manner. […] Further testing is underway in various breast cancer cell lines with different FOXC2 expression levels.
Cell viability was assessed by MTT (3-(4,5-Dimethylthiazol-2-yl)-2,5-Diphenyltetrazolium Bromide) assay. 1×10^4 cells were seeded on 48-well cell culture plate, and were incubated for at least 24 hours prior to drug treatment. The MTT reagent (Fisher Scientific) was added to the culture medium 3 hours prior to the end of compound incubation. The reaction took place in the 37° C. incubator with 5% CO2 for 3 hours. Cell culture medium was then removed from the wells. Cells with the insoluble purple formazan were lysed with DMSO for 10 mins at room temperature, 0.5 ml per well. The solution was aliquot to 96-well plate for absorbance reading at 570 nm using a plate reader.
Background: Tetrazolium dyes change colour on reduction, which living cells bring about.

The next test has as its target T1, full-length FOXC2 (Homo sapiens, UniProt Q99958).
T1 construct: human FOXC2 protein (amino acid residues 1-501) with a C-terminal 6 histidine tag; made in house; host or cells: E. coli BL21(DE3)
T1 sequence (Q99958 1-501): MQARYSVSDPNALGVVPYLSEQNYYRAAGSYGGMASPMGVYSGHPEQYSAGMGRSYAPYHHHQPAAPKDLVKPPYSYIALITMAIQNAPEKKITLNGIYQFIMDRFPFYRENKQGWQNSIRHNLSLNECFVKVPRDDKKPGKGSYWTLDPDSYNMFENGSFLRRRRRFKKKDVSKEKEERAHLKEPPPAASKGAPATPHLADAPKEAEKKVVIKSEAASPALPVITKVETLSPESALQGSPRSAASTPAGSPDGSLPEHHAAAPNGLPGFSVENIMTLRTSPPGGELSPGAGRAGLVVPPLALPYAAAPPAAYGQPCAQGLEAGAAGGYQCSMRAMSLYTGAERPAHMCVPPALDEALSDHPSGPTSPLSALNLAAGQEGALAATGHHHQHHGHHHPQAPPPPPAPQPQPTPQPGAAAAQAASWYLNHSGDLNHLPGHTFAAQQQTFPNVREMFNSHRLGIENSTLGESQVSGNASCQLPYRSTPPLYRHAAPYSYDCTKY
Briefly: ELISA-like binding assay, immobilized full-length FOXC2. Conditions: biotinylated compound, immobilized recombinant full-length FOXC2, Qdot655 fluorescence. As for the experimental part:
The binding affinity of MC-1-F2 to full-length FOXC2 was determined using an ELISA-like binding assay. In this assay, varying concentrations of biotinylated MC-1-F2 or biotinylated MC-C (control; FIG. 12) were incubated in the wells with immobilized recombinant full-length FOXC2 or the DNA binding domain (DBD) of FOXC2 (FIG. 2A). After washing off unbound ligand, the wells were incubated with streptavidin-conjugated Qdot655, followed by fluorescence measurement of the wells using a plate reader. […] This is important for the specificity of MC-1-F2 to FOXC2 as several forkhead transcription factors share a very similar DNA-binding domain.
Clear bottom, black wall, 96 well plate (Corning) was coated with 1 μg/mL of full length FOXC2 or DNA binding domain (DBD) of FOXC2 protein in sensitizing buffer (0.621 g NaHCO3, 0.275 g Na2CO3 in 100 mL of water pH=9.5) overnight at 4° C. Wells were washed 3 times with 200 μL of wash buffer (lx PBS with 0.05% Tween-20). Wells were blocked with blocking buffer (1% BSA in 1×PBS with 0.05% Tween-20) for 1 hour at room temperature. 50 μL of serial dilutions of biotinylated compound in blocking buffer were added to each well and incubated for 1 hour at room temperature. Followed was the addition of […] of 20 nM of strepavidin-Qdot655 in blocking buffer for 1 hour at room temperature. […] Fluorescence was measured using a plate reader (Ex. 495, Em. 655).

Test [1] has as its target T2, endogenously expressed FOXC2 (Homo sapiens, UniProt Q99958).
T2 construct: endogenous in cells; host or cells: MDA-MB-231
T2 sequence (Q99958 1-501): T1 sequence (Q99958 1-501)
Briefly: Drug affinity responsive target stability (DARTS) assay with MDA-MB-231 cell lysate. In kind it is binding. Conditions: 20 μM, Western blot. As for the experimental part: As recombinant FOXC2 was used for the screening and the binding affinity determination, it was important to examine if MC-1-F2 binds to endogenously expressed FOXC2. To this end, a drug affinity responsive target stability assay (DARTS) was performed for MC-1-F2 and MC-C with cell lysate of MDA-MB-231 cells (FIG. 2B). In DARTS, the binding of a small molecule to its cellular target increases protease resistance of the target protein (Pai et al., 2015).
MDA-MB-231 cell lysate was harvested and incubated with 600 μL of Triton X-100 lysis buffer (50 mM Tris-HCl, 150 mM NaCl, 1 mM EDTA, 1% Triton X-100, pH 8.0) with protease inhibitor and 150 μL of phosphate inhibitor was added. Then frozen overnight followed by addition of 66.7 μL of 10×TNC buffer (1 M Tris-HCl, 5 M NaCl, 1 M CaCl2, pH 8.0) and gently mixed. The lysate was further split into 2 test tubes: Tube (1) 300 μL, Tube (2) 300 μL of cell lysate. The samples were incubated in desired concentration of compounds for 1 hour at room temperature and gently mixed. Once done the lysate of each condition was further split into 5 test tubes for each pronase condition. Pronase stock solution was thawed prior to use and 2 μL of each concentration were added to each tube and allowed to incubate for 20-30 minutes, followed by the addition of SDS loading buffer to stop pronase digestion followed by Western blot analysis.

One may read the Kd as the constant that tells how readily two partners part at equilibrium. Take `N=C(N)NCCCCNc1nc(Nc2ccc(Oc3ccccc3)cc2)nc(N2CCN(c3nc(N)nc(Nc4ccc(N5CCOCC5)cc4)n3)CC2)n1` [MC-1-F2]: the “inhibition of cell viability” value in the test with MCF-7 cells is recorded as “little inhibition of cell viability”. Also, the Kd on full-length FOXC2 came out at 26 µM. Also, in test [1], the “protection of FOXC2 from pronase-mediated proteolysis (DARTS)” value is on record as “protection of FOXC2 from pronase-mediated proteolysis”. Besides, the “proteolysis of β-actin (DARTS)” value in test [1] (pronase) was “did not affect the proteolysis β-actin”.
